Assay results from ChEMBL document CHEMBL3991601, “The target landscape of clinical kinase drugs” (Science, 2017).
The source made the active and inactive calls. Cut-off read from the data, not from the text of the source, for most assays here: actives have a measured Kd and inactives only a lower limit.

Legend:
[1] = target: Tyrosine-protein kinase SYK (Homo sapiens, UniProt P43405)
Deoxycytidine kinase = Deoxycytidine kinase (Homo sapiens, UniProt P27707)
[2] = target: Protein-tyrosine kinase 2-beta (Homo sapiens, UniProt Q14289)
Sequence of Protein-tyrosine kinase 2-beta (Q14289 whole entry, the tested form may be a part): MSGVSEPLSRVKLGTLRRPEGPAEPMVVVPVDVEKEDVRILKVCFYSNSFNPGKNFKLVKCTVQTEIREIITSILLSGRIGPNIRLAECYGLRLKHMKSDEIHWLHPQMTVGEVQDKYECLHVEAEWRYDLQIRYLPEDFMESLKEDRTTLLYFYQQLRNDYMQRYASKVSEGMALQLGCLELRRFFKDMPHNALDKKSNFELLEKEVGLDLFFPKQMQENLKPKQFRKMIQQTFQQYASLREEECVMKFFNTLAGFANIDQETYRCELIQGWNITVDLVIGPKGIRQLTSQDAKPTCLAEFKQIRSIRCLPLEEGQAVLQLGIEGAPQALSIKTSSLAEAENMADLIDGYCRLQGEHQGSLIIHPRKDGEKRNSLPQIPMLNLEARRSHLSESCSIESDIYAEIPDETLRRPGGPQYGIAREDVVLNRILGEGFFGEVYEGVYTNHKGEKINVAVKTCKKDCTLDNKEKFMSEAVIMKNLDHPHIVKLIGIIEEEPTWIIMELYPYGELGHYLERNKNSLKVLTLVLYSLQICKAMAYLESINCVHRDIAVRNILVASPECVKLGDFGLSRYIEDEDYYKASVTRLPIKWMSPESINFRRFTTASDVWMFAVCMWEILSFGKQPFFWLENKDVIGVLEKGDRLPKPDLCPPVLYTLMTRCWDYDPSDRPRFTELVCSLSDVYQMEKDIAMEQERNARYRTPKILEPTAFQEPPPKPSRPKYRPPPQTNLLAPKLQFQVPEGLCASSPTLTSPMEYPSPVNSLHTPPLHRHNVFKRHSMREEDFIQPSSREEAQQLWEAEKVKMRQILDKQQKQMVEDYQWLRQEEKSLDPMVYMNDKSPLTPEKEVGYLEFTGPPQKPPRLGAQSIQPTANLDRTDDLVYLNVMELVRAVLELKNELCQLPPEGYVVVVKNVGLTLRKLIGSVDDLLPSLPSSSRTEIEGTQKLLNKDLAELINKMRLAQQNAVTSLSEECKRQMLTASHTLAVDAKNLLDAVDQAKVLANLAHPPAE

[3] = target: Epithelial discoidin domain-containing receptor 1 (Homo sapiens, UniProt Q08345)
[4] = target: Mitogen-activated protein kinase kinase kinase 1 (Homo sapiens, UniProt Q13233)
Sequence of Mitogen-activated protein kinase kinase kinase 1 (Q13233 whole entry): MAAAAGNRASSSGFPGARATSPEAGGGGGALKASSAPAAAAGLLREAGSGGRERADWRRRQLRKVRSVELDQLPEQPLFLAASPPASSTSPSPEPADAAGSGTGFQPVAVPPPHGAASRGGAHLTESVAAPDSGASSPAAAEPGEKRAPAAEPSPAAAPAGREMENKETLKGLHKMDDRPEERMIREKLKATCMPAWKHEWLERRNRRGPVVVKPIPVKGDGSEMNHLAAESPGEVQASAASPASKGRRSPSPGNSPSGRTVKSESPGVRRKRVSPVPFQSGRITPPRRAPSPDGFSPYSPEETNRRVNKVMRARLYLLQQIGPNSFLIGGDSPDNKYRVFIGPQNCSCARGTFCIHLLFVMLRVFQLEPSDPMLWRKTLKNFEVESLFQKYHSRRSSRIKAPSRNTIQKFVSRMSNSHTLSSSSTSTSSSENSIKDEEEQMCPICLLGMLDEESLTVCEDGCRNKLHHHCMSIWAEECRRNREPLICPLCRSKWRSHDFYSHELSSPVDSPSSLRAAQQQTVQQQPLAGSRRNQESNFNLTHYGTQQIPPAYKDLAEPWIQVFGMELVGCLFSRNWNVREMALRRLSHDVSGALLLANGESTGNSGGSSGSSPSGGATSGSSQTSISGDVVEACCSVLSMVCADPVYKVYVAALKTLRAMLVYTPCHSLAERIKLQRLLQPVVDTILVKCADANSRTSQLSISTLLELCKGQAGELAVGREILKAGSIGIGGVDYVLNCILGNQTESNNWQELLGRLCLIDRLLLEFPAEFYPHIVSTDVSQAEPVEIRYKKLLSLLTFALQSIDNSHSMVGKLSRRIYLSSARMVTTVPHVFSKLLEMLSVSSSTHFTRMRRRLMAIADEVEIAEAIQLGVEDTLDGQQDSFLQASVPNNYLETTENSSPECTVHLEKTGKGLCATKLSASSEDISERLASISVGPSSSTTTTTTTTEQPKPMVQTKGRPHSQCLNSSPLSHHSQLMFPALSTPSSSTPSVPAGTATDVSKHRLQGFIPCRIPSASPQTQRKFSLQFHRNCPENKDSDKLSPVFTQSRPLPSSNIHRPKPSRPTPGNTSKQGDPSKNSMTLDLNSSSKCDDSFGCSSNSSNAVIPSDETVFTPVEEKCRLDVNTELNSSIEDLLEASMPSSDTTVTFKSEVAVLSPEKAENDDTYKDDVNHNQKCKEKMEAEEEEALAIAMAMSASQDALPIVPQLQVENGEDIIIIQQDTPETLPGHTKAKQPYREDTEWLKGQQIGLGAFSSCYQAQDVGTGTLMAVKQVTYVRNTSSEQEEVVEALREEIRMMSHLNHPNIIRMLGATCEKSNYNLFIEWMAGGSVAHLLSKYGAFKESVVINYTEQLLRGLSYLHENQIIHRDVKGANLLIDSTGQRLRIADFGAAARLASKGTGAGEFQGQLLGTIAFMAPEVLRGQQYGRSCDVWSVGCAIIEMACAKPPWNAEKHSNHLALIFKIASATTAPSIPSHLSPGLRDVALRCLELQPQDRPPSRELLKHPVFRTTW

[5] = target: Platelet-derived growth factor receptor beta (Homo sapiens, UniProt P09619)
Sequence of Platelet-derived growth factor receptor beta (P09619 whole entry): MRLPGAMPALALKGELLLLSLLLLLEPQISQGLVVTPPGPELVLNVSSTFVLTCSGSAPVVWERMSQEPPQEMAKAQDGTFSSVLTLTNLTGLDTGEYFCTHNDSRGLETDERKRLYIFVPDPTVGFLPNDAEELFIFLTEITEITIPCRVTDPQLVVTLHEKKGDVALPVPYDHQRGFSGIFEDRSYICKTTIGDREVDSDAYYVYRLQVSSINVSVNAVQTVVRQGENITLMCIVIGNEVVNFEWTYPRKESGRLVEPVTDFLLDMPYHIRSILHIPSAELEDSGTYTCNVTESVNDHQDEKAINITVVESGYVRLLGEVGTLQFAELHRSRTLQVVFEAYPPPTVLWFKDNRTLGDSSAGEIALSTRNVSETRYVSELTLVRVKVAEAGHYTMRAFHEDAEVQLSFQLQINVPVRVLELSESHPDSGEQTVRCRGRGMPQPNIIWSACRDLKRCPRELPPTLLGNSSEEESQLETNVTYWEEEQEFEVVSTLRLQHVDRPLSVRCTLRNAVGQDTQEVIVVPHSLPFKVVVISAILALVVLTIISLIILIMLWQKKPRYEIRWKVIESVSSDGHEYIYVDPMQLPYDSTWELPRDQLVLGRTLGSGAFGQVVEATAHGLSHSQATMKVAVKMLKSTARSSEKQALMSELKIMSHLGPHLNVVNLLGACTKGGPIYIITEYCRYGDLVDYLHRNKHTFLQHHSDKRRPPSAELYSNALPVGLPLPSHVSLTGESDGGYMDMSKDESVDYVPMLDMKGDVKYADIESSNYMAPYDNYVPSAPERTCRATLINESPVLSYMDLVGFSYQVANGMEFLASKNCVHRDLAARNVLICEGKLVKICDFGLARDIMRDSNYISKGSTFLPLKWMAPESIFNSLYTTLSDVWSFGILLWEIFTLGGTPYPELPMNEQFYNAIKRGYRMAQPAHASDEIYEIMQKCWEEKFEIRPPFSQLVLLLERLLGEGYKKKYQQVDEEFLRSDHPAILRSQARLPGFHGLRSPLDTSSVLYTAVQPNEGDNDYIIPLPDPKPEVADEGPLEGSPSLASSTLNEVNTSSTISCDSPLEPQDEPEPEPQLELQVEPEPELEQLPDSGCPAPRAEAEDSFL

[6] = target: Putative heat shock protein HSP 90-beta 2 (Homo sapiens, UniProt Q58FF8)
Sequence of Putative heat shock protein HSP 90-beta 2 (Q58FF8 whole entry): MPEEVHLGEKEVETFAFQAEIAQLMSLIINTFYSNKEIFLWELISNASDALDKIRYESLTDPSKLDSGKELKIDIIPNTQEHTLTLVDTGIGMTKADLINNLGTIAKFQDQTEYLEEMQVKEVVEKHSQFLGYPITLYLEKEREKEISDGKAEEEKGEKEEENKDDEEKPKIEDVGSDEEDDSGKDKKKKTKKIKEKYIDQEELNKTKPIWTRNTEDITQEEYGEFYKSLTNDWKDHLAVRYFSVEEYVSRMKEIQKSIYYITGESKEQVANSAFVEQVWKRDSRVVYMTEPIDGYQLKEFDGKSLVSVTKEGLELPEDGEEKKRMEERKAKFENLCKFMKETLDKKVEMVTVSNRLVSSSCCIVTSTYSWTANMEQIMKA

[7] = target: T1, Serine/threonine-protein kinase LATS1 (Homo sapiens, UniProt O95835)
T1 sequence (O95835 whole entry): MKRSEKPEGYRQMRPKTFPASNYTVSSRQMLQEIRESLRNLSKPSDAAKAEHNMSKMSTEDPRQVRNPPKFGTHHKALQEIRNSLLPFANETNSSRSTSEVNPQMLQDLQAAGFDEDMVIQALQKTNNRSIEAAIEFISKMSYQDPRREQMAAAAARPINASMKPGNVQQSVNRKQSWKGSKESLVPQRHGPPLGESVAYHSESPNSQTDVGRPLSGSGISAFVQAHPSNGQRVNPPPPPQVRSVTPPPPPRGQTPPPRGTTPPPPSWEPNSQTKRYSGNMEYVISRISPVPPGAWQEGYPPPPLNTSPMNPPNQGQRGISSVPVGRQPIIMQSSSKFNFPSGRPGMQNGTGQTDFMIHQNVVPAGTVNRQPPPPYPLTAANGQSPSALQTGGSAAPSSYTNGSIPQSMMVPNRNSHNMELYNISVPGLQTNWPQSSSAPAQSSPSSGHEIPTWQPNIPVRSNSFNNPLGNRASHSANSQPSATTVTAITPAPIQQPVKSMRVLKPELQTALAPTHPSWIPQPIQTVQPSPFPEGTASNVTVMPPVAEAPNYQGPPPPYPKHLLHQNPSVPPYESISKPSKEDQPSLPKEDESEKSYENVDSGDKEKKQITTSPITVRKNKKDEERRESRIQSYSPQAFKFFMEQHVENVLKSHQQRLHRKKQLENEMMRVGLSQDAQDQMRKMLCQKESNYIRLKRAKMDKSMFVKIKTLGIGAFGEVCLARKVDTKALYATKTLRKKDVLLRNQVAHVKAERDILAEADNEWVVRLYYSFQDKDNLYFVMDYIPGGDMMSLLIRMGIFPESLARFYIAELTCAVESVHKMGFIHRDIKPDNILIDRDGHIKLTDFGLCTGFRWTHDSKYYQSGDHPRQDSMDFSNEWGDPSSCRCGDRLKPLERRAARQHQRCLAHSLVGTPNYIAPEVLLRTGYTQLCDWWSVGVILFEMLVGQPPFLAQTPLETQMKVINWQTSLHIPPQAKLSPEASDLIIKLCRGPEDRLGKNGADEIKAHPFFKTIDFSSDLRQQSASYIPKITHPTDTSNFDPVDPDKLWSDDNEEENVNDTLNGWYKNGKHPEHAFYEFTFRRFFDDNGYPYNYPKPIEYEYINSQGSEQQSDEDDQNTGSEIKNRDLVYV

[8] = target: T2, Serine/threonine-protein kinase Nek3 (Homo sapiens, UniProt P51956)
T2 sequence (P51956 whole entry): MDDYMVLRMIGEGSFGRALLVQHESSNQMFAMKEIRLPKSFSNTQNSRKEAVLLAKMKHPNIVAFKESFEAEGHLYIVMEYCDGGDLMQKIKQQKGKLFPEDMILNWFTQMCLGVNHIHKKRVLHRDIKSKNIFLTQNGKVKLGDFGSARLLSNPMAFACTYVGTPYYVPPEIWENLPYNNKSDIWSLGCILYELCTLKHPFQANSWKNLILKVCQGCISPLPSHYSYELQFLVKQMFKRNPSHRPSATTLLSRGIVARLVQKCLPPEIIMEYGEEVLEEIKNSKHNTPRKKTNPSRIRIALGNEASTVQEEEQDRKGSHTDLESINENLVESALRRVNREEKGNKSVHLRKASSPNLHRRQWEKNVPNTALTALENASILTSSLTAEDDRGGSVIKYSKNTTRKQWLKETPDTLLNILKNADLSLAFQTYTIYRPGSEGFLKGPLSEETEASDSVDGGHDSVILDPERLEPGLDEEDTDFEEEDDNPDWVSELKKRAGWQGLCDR

[9] = target: Cyclin-dependent kinase 1 (Homo sapiens, UniProt P06493)
Sequence of Cyclin-dependent kinase 1 (P06493 whole entry): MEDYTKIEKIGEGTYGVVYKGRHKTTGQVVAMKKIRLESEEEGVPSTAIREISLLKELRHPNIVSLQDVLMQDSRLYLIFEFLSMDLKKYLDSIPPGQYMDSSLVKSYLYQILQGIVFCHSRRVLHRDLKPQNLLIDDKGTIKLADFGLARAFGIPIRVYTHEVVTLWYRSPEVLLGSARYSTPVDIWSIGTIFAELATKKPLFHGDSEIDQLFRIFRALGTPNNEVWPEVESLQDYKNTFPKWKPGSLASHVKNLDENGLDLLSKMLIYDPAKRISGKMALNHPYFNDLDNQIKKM

[10] = target: T3, Ribosyldihydronicotinamide dehydrogenase [quinone] (Homo sapiens, UniProt P16083)
T3 sequence (P16083 whole entry): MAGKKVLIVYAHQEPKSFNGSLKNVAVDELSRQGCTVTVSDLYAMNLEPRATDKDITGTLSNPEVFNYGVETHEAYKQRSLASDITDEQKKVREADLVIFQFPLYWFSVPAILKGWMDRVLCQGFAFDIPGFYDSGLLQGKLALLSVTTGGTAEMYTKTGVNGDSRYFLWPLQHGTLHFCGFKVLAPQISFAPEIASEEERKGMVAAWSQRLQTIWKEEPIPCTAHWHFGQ

[11] = target: Serine/threonine-protein kinase PAK 2 (Homo sapiens, UniProt Q13177)
Sequence of Serine/threonine-protein kinase PAK 2 (Q13177 whole entry): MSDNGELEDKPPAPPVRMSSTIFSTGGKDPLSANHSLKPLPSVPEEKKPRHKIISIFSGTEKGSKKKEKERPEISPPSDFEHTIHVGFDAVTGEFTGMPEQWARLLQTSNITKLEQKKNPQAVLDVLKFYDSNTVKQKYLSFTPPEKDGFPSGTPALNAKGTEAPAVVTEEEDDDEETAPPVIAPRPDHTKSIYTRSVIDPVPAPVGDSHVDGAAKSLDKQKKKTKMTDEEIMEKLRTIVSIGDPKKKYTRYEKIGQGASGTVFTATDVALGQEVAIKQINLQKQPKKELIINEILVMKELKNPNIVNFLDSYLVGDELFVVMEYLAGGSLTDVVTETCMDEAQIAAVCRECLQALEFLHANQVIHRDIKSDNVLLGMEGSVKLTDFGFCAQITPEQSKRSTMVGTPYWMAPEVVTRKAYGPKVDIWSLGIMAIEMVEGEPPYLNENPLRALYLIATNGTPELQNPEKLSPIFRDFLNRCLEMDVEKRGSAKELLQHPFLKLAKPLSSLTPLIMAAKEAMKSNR
Note: in the data inactive means no Kd found up to 30 µM.

| Kd [1] | Kd (Deoxycytidine kinase) | Kd [2] | Kd [3] | Kd [4] | Kd [5] | Kd [6] | Kd [7] | Kd [8] | Kd [9] | Kd [10] | Kd [11] | Structure (SMILES) |
| --- | --- | --- | --- | --- | --- | --- | --- | --- | --- | --- | --- | --- |
| > 30 µM (inactive) | > 30 µM (inactive) | > 30 µM (inactive) | > 30 µM (inactive) | > 30 µM (inactive) | > 30 µM (inactive) | > 30 µM (inactive) | > 30 µM (inactive) | > 30 µM (inactive) | > 30 µM (inactive) | 15.2 µM (active) | > 30 µM (inactive) | COc1cc(OC)c(/C=C/S(=O)(=O)Cc2ccc(OC)c(NCC(=O)O)c2)c(OC)c1 [RIGOSERTIB] |
| > 30 µM (inactive) | > 30 µM (inactive) | > 30 µM (inactive) | > 30 µM (inactive) | > 30 µM (inactive) | > 30 µM (inactive) | > 30 µM (inactive) | > 30 µM (inactive) | > 30 µM (inactive) | > 30 µM (inactive) | > 30 µM (inactive) | > 30 µM (inactive) | CNC(=O)CN1CCC(Oc2cc3c(Nc4cccc(Cl)c4F)ncnc3cc2OC)CC1 [SAPITINIB] |
| > 30 µM (inactive) | > 30 µM (inactive) | > 30 µM (inactive) | > 30 µM (inactive) | > 30 µM (inactive) | > 30 µM (inactive) | > 30 µM (inactive) | > 30 µM (inactive) | > 30 µM (inactive) | > 30 µM (inactive) | 0.206 µM (active) | > 30 µM (inactive) | C[C@@H](c1ccc2nccn2c1)n1nnc2ncc(-c3cnn(C)c3)nc21 [SAVOLITINIB] |
| > 30 µM (inactive) | > 30 µM (inactive) | > 30 µM (inactive) | > 30 µM (inactive) | > 30 µM (inactive) | 1.61 µM (active) | > 30 µM (inactive) | > 30 µM (inactive) | > 30 µM (inactive) | > 30 µM (inactive) | > 30 µM (inactive) | > 30 µM (inactive) | CN1CCC(CNc2ccc3ncc(-c4cccc(OC(F)(F)F)c4)n3n2)CC1 [SGI-1776] |
| > 30 µM (inactive) | > 30 µM (inactive) | > 30 µM (inactive) | > 30 µM (inactive) | > 30 µM (inactive) | > 30 µM (inactive) | > 30 µM (inactive) | > 30 µM (inactive) | > 30 µM (inactive) | > 30 µM (inactive) | 9.92 µM (active) | > 30 µM (inactive) | C[C@@H]1CN(Cc2ccc(F)cc2)[C@@H](C)CN1C(=O)c1cc2c(C(=O)C(=O)N(C)C)cn(C)c2cc1Cl [TALMAPIMOD] |
| > 30 µM (inactive) | > 30 µM (inactive) | > 30 µM (inactive) | > 30 µM (inactive) | > 30 µM (inactive) | > 30 µM (inactive) | > 30 µM (inactive) | > 30 µM (inactive) | > 30 µM (inactive) | > 30 µM (inactive) | > 30 µM (inactive) | > 30 µM (inactive) | O=c1sn(-c2cccc3ccccc23)c(=O)n1Cc1ccccc1 [TIDEGLUSIB] |
| > 30 µM (inactive) | > 30 µM (inactive) | > 30 µM (inactive) | 0.19 µM (active) | > 30 µM (inactive) | 2.41 µM (active) | > 30 µM (inactive) | > 30 µM (inactive) | > 30 µM (inactive) | > 30 µM (inactive) | > 30 µM (inactive) | > 30 µM (inactive) | COc1cc2nccc(Oc3ccc(NC(=O)Nc4cc(C)on4)c(Cl)c3)c2cc1OC [TIVOZANIB] |
| > 30 µM (inactive) | > 30 µM (inactive) | > 30 µM (inactive) | > 30 µM (inactive) | > 30 µM (inactive) | > 30 µM (inactive) | > 30 µM (inactive) | > 30 µM (inactive) | > 30 µM (inactive) | > 30 µM (inactive) | > 30 µM (inactive) | > 30 µM (inactive) | CC(=O)Nc1cccc(-n2c(=O)n(C3CC3)c(=O)c3c(Nc4ccc(I)cc4F)n(C)c(=O)c(C)c32)c1 [TRAMETINIB] |
| > 30 µM (inactive) | > 30 µM (inactive) | > 30 µM (inactive) | > 30 µM (inactive) | > 30 µM (inactive) | > 30 µM (inactive) | > 30 µM (inactive) | > 30 µM (inactive) | > 30 µM (inactive) | > 30 µM (inactive) | > 30 µM (inactive) | > 30 µM (inactive) | CN1N=C(N)c2cn([C@@H]3O[C@H](COP(=O)(O)O)[C@@H](O)[C@H]3O)c3ncnc1c23 [TRICIRIBINE PHOSPHATE] |
| > 30 µM (inactive) | > 30 µM (inactive) | > 30 µM (inactive) | > 30 µM (inactive) | > 30 µM (inactive) | > 30 µM (inactive) | > 30 µM (inactive) | > 30 µM (inactive) | > 30 µM (inactive) | > 30 µM (inactive) | > 30 µM (inactive) | > 30 µM (inactive) | CC(C)Nc1cc(-c2c[nH]c(C(=O)N[C@H](CO)c3cccc(Cl)c3)c2)c(Cl)cn1 [ULIXERTINIB] |
| > 30 µM (inactive) | > 30 µM (inactive) | > 30 µM (inactive) | > 30 µM (inactive) | > 30 µM (inactive) | > 30 µM (inactive) | > 30 µM (inactive) | > 30 µM (inactive) | > 30 µM (inactive) | > 30 µM (inactive) | > 30 µM (inactive) | > 30 µM (inactive) | CCCS(=O)(=O)Nc1ccc(F)c(C(=O)c2c[nH]c3ncc(-c4ccc(Cl)cc4)cc23)c1F [VEMURAFENIB] |
| > 30 µM (inactive) | > 30 µM (inactive) | > 30 µM (inactive) | > 30 µM (inactive) | > 30 µM (inactive) | > 30 µM (inactive) | > 30 µM (inactive) | > 30 µM (inactive) | 2.96 µM (active) | > 30 µM (inactive) | > 30 µM (inactive) | > 30 µM (inactive) | CC[C@@H]1C(=O)N(C)c2cnc(Nc3ccc(C(=O)N[C@H]4CC[C@H](N5CCN(CC6CC6)CC5)CC4)cc3OC)nc2N1C(C)C [VOLASERTIB] |
| > 30 µM (inactive) | > 30 µM (inactive) | > 30 µM (inactive) | > 30 µM (inactive) | > 30 µM (inactive) | > 30 µM (inactive) | > 30 µM (inactive) | > 30 µM (inactive) | > 30 µM (inactive) | > 30 µM (inactive) | > 30 µM (inactive) | > 30 µM (inactive) | CCn1c(=O)c(-c2cc[nH]n2)cc2c(C)nc(N)nc21 [VOXTALISIB] |
| > 30 µM (inactive) | > 30 µM (inactive) | > 30 µM (inactive) | > 30 µM (inactive) | > 30 µM (inactive) | 1.12 µM (active) | > 30 µM (inactive) | 3.79 µM (active) | 0.353 µM (active) | > 30 µM (inactive) | > 30 µM (inactive) | > 30 µM (inactive) | O=C(Nc1ccc(-c2ccnc(Nc3ccc(N4CCOCC4)cc3)n2)cc1)C1CCCN1 (stereo not drawn) [XL-019] |
